{"source": "patent US9782429B2", "about": "“Formulation having mobilizing activity” (GENTIUM SPA, priority 2000, dated 2017)", "tested_on": "white blood cells (WBC)", "assay": "Effect of G-CSF and/or defibrotide on the amount of white blood cells in murine blood", "format": "in vivo, BALB/c mice", "conditions": "mice, IP injection, 5 days treatment; FIG. 1", "protocol": "This experiment was carried out to evaluate the effect of the administration of G-CSF and/or defibrotide (DEF) on the amount of white blood cells (WBC) present in murine blood. BALB/c mice from 6 to 8 weeks old and having a body weight of from 20 to 25 g were subjected to intraperitoneal (IP) injections of G-CSF (5 μg/mouse/day), DEF (1 mg/mouse/day), or a combination of G-CSF (5 μg/mouse/day) and increasing doses of DEF (1, 10, 15 mg/mouse/day). A saline solution, buffered to 0.1%, of […] (PBS/MSA) was administered by IP injection to the control mice which had not received G-CSF and/or DEF. The mice were treated for 5 days and sacrificed after 3 or 5 days of treatment, or 3 days after therapy had ceased. The following symbols were used to represent each group of mice: G-CSF (▪) (n=24), DEF 1 (◯) (n=3), G-CSF+DEF 1 (♦) (n=13), G-CSF+DEF 10 (▴) (n=6), G-CSF+DEF 15 (●) (n=23). The mean white blood cell count in PBS/MSA in the control mice was 2.87±0.2×10^6/ml of blood; the data ate expressed as mean± standard error of the mean (SEM).", "data": [{"substance": "defibrotide", "values": [{"measurement": "amount of white blood cells in circulation in murine blood", "result": "does not have a positive influence"}]}]}
